Assay results as given in paper PMC3723855, “R31C GNRH1 Mutation and Congenital Hypogonadotropic Hypogonadism” (PLoS ONE, 2013).
Entries after “also recorded” stand apart in the source; their conditions may differ.

How the values were obtained:
human GnRH-R [1] = molecular target: T1, human GnRH-R (Homo sapiens, UniProt P30968); assay: Competition radioligand binding, 125I-[His5, D-Tyr6]-GnRH, transfected COS-7 cells
T1 sequence (P30968 1-328): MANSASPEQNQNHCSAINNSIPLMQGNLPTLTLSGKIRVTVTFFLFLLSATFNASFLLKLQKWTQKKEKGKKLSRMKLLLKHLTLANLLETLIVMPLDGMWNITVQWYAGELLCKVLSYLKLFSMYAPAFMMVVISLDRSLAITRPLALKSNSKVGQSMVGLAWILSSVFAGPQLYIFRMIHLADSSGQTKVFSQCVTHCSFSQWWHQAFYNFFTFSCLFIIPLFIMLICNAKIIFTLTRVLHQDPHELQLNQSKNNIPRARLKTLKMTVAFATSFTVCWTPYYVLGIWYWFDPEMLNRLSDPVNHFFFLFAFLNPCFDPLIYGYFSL
Experimental: Figure 2 Binding of WT and R31C GnRH to the GnRH receptor (GnRH-R). […] Data are the means of two experiments performed in triplicate.
The high affinity GnRH analog, [His^5, D-Tyr^6]-GnRH was radio-iodinated as previously described and purified using Sephadex chromatography. COS-7 cells were transiently transfected with a human GnRH-R DNA construct containing the human GnRH-RII carboxy-terminal to enhance expression using 6 µg of DNA and 30 µl FuGene HD (Promega Corporation, Madison, WI) per 10 cm dish and seeded into 12-well plates. […] Cells were washed with phosphate-buffered saline (2×1 ml) and lysed with NaOH (1 ml, 0.1 M). Cell-bound radioactivity was counted in a gamma counter and IC-50 values were calculated using Graphpad Prism (GraphPad Software Inc, San Diego).

LbetaT2 cells = assay: Intracellular calcium mobilization (Fura2) in LbetaT2 cells; assay type: cell-based, murine; settings: for calcium mobilisation: 10 nM, LbetaT2 cells
Experimental: Figure 5 Effect of treatments on intracellular calcium mobilization. Cells were loaded with Fura 2-AM. At the time of the experiment 100 µM EGTA was added 30 sec before addition of 300 µM of CaCl2 (Ca^2+) to the medium as indicated, and cells were then stimulated with 10 nM of wild type (WT), mutant (R31C) or equimolar combination (10 nM WT +10 nM R31C) or vehicle for 3 min. In the upper panel, representative curves of single cell recording. Each experiment mean was analysed using One-way ANOVA followed by Tukey's Multiple comparison test. In the lower panels, histograms show the means ± SEM (n = 4) of the response to ligands as calcium peak and as area under the curve (AUC). […] Representative of at least three independent experiments, *p<0.05.
LbetaT2 cells were kept in serum free medium overnight and then loaded with 2 µM Fura2-AM for 45 min at 37°C. The experiment was conducted in HEPES buffer (in mM; 116 NaCl, 5.6 KCl, 1.2 MgCl2, 5 NaHCO3, 1 NaH2PO4, 20 HEPES ph 7.4) in presence of extracellular Ca^2+ (EGTA 100 µM + CaCl2 300 µM). Single images of fluorescent emission at 510 nm under excitation at 340 and 380 nm were taken every 5 Sec. Changes in [Ca^2+]i in response to GnRHs were monitored using the Fura2 340/380 fluorescence ratio. Basal ratio was arbitrarily considered as 1. Ca^2+ responses over basal level were given either as maximal rise of [Ca^2+]i or as area under the curve (for 2 min after agonist addition).

human GnRH-R [2] = molecular target: T1, human GnRH-R; assay: Inositol phosphate (IP) accumulation in COS-7 cells transfected with human GnRH-R; assay type: cell-based; set-up: host or cells: COS-7
Experimental: Figure 6 IP accumulation. (A) COS-7 cells were transiently transfected with human GnRH-R expression vector and washed before the addition of myo-[2-^3H]Inositol. […] This experience was conducted three times each in triplicate. (B) Representation of individual values of EC-50 (calculated with Arcsin “P” root transformation) from n = 3 dose-response experiments.
COS-7 cells were transiently transfected by electroporation with human GnRH-R DNA (10 µg/15 cm dish), seeded into 12-well plates and radiolabelled by overnight incubation with myo-[3H]Inositol (0.5 µCi/well, American Radiolabeled Chemicals, St Louis, Mo). […] Incubations were stopped by removal of the medium and cells were lysed by addition of formic acid (1 ml, 10 mM). IP were extracted from cell lysates using Dowex 1 X8-200 chromatography and counted using a liquid scintillation counter (Pack ard). EC-50 and Emax values were calculated using Graphpad Prism (GraphPad Software Inc).

GNRHR = assay: SRE-coupled luciferase after pulsatile exposure (four 90 min-spaced pulses), HEK293T cells; assay type: cell-based, human; settings: 5 minutes each, 10 nM WT, 10 nM R31C or 10+10 nM, harvested five hours after last pulse, three experiments, n = 8 replicates
Experimental: Supplementary file pone.0069616.s002.ppt: Figure S2 Luciferase activity after pulsatile exposure. HEK293T cells were transiently transfected with GNRHR and SRE-coupled luciferase reporter gene, and then exposed to four 90 min-spaced pulses of 10 nM WT, 10 nM […] and 10+10 nM WT+[…]. After 5 minutes exposure to each ligand, cells were washed, and a subsequent pulse was given 90 minutes after. Five hours after the last pulse, cells were harvested for luciferase assay. Luciferase activity arbitrary units obtained by luminometry (a.l.u.) are shown as ratio on beta-galactosidase activity by optical density (used as transfection efficiency internal control). This experience was conducted three times (n = 8 replicates for each experiment). (PPT) Click here for additional data file.

[3] = R31C 10^−10 M to 10^−6 M in combination with WT GnRH at 10^−9 M
[4] = 10 nM R31C, 3 min, EGTA 100 µM + CaCl2 300 µM, n = 4, p<0.05

SMILES | IC50 (human GnRH-R [1]; COS-7 transfected with human GnRH-R construct, 125I-[His5, D-Tyr6]-GnRH, 4 h, 4°C, two experiments performed in duplicate) [nM] | impact of added R31C GnRH on receptor binding with WT GnRH (human GnRH-R [1]; [3]) | activity in receptor binding (human GnRH-R [1]; R31C GnRH) | affinity for GnRH-R lower than that of WT GnRH (human GnRH-R [1]; R31C GnRH versus WT GnRH, COS-7 cells) | calcium area under the curve (AUC) versus WT (LbetaT2 cells; [4]) | calcium peak versus WT (LbetaT2 cells; [4]) | calcium mobilisation (LbetaT2 cells) | calcium mobilisation (LbetaT2 cells; listed as R31C peptide) | impact of added R31C GnRH on Ca2+ signaling with WT GnRH (LbetaT2 cells; [3]) | maximal IP / agonism (human GnRH-R [2]; COS-7, R31C compared with WT) | EC50 (human GnRH-R [2]; COS-7, human GnRH-R, 1 hour, n = 3 dose-response experiments each in triplicate, Arcsin "P" root transformation, spread not defined, read-out: EC-50, IP accumulation (Fig. 6B)) [nM] | impact of added R31C GnRH on IP generation with WT GnRH (human GnRH-R [2]; [3]) | IP activity / potency (human GnRH-R [2]; R31C GnRH versus WT) | less potent than WT GnRH, IP accumulation (human GnRH-R [2]; R31C GnRH versus WT GnRH, p<0.01) [fold] | luciferase activity after pulsatile administration (GNRHR)
CC(C)C[C@H](NC(=O)CNC(=O)[C@H](Cc1ccc(O)cc1)NC(=O)[C@H](CO)NC(=O)[C@H](Cc1c[nH]c2ccccc12)NC(=O)[C@H](Cc1c[nH]cn1)NC(=O)[C@@H]1CCC(=O)N1)C(=O)N[C@@H](CS)C(=O)N1CCC[C@H]1C(=O)NCC(N)=O [R31C GnRH] | 850 | failed to have any impact | very low activity | more than 100 fold | significantly reduced compared to WT; also recorded: significantly lower than WT | significantly reduced compared to WT; also recorded: significantly lower than WT | very low activity | weaker responses | failed to have any impact | full agonist; also recorded: maximal IP generated by both ligands was the same; also recorded: able to elicit the same maximal stimulation | 199 ± 75.9 | failed to have any impact | very low activity | > 100 | 
CC(C)C[C@H](NC(=O)CNC(=O)[C@H](Cc1ccc(O)cc1)NC(=O)[C@H](CO)NC(=O)[C@H](Cc1c[nH]c2ccccc12)NC(=O)[C@H](Cc1c[nH]cn1)NC(=O)[C@@H]1CCC(=O)N1)C(=O)N[C@@H](CCCNC(=N)N)C(=O)N1CCC[C@H]1C(=O)NCC(N)=O [WT GnRH, reference compound] |  |  |  |  |  |  | rapid and transient calcium mobilisation |  |  |  |  |  |  |  | more potent than R31C GnRH
